In doi:10.1101/2025.07.07.663466v1 (biorxiv, 2025):

Biological target: M. tuberculosis GroEL1 (Cpn60.1) (Mycobacterium tuberculosis, UniProt P9WPE9)
Sequence (P9WPE9 2-539 limits assumed): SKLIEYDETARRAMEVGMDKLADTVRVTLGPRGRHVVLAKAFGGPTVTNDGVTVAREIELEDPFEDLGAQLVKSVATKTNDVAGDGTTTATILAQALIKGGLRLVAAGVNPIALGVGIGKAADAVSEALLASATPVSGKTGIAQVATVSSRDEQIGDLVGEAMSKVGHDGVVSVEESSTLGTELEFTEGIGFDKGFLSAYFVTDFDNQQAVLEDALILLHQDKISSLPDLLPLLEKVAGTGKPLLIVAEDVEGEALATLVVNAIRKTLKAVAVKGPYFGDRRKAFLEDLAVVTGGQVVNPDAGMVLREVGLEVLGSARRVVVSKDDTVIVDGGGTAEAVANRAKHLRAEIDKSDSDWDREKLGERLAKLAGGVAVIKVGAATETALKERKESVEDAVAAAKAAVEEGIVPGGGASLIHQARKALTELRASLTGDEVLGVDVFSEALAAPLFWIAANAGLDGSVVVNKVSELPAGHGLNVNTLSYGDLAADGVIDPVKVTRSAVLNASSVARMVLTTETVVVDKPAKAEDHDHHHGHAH

`CCC(=O)SCCNC(=O)CCNC(=O)[C@H](O)C(C)(C)COP(=O)(O)OP(=O)(O)OC[C@H]1O[C@@H](n2cnc3c(N)ncnc32)[C@H](O)[C@@H]1OP(=O)(O)O` [propionyl-CoA] was tested, and the “auto-propionylation, anti-propionyllysine enrichment and MS/MS” value was “Using propionyl-CoA as a substrate”.
